Legend:
Caco-2 permeability = assay type: in vitro ADME; conditions: human, Caco-2; apical to basolateral
[1] = system: P. vivax and P. falciparum; conditions: cited from earlier work
[2] = Oral PK and PK modeling of KAE609 in NMRI mice; assay type: in vivo, female NMRI mice; conditions: for AUC(0-inf) / Cmax: NMRI, 5.3 mg/kg, single oral dose 5.3 mg/kg
Protocol: For the in vivo PK studies, female NMRI mice (specific pathogen free) were obtained from Janvier, Le Genest-Saint-Isle, France. To investigate the influence of the disease status on the pharmacokinetics, a single oral dose (5.3 mg/kg) of KAE609 was given to both the infected and uninfected NMRI mice, and the PK parameters were determined. The infected mice were dosed at 24 h postinfection. The formulation, sampling times (0.25, 0.5, 1, 2, 4, 8, 24, and 48 h postdose), extraction, and analysis were similar to those in the method described above.
Population PK modeling of the concentration-time data of KAE609 in mice was performed using naive pooling without intersubject variability using NONMEM version VI 2.0. A two-compartment pharmacokinetic model with first-order absorption and nonlinear elimination was built to fit the concentration-time data of KAE609 generated in (infected and healthy) NMRI mice at 5.3 mg/kg. In the model, clearance (CL) was described by equation 2, where Cp is compound plasma concentration, the maximum metabolic rate (Vmax)/Km ratio is the maximal clearance achievable when Cp is ≪Km, and Km corresponds to the compound concentration at which the clearance reached 50% of the Vmax/Km. The primary model parameters derived were plasma clearance (CL) (in liters/h/kg), intercompartmental clearance (Q) (in liters/h/kg), central and peripheral volume of distribution (Vc and Vp, respectively) (in liters/kg), and the absorption rate constant (Ka) (in h^−1). The diagnostic plots were analyzed for closeness to and randomness along the line of identity on the observed versus predicted concentration plot, as well as randomness along the weighted residual zero line on the predicted concentration or time. […] Based on the estimated primary model parameters (Vmax, Km, Vc, Vp, Q, and Ka), the plasma concentration-time profiles and secondary pharmacokinetic parameters, such as Cmax, AUC at different doses, and dosing regimens, were simulated using the Berkeley Madonna software (version 8.0.1) (Berkeley Madonna, University of California, Berkeley, CA. 2 CL=Vmax/(Km+Cp)

[3] = patients, 30 mg daily for 3 days
[4] = female, mouse, plasma, po, infected NMRI mice
[5] = female, mouse, plasma, po, uninfected NMRI mice
[6] = two-compartment model, NMRI mice 5.3 mg/kg p.o.

In the case of `C[C@H]1Cc2c([nH]c3cc(Cl)c(F)cc23)[C@@]2(N1)C(=O)Nc1ccc(Cl)cc12` [(+)-7 (KAE609)], the Papp A→B (Caco-2 permeability) is listed as 1.69 ×10⁻⁶ cm/s, the Clinical outcome ([1]; 3-day dosing regimen of 30 mg daily, P. vivax and P. falciparum malaria patients) is listed as “clearing parasitemia” and the “AUC (average of two cohorts)” value [1, 3] is listed as 14,300 ng · h/ml. For the same compound, the “Cmax (average of two cohorts)” value [1, 3] was 855 ng/mL, the “Fold higher Cmax and exposure in NMRI mice than in CD-1 mice” value ([2]; comparable oral dose (5 mg/kg)) was 4 fold and the AUC(0-inf) [2, 4] was 12600 ng·h/mL. For the same compound, the Cmax [2, 4] was 960 ng/mL, the AUC(0-inf) [2, 5] was 13200 ng·h/mL and the Cmax [2, 5] was 1010 ng/mL. The Km ([2]; female, mouse, plasma, po, two-compartment model, nonlinear elimination, NMRI mice 5.3 mg/kg p.o.) was 0.0341 µg/mL, the “Difference in PK profiles between infected and uninfected NMRI mice” value ([2]; oral 5.3 mg/kg) was “No significant difference” and the “Ka (absorption rate constant)” value [2, 6] was 1.78 h⁻¹. For the same compound, the “Q (intercompartmental clearance)” value [2, 6] was 10.2 mL/min/kg, the “Vc (central volume of distribution)” value [2, 6] was 4.4 L/kg and the “Vp (peripheral volume of distribution)” value [2, 6] was 5.1 L/kg. The Vmax ([2]; two-compartment model, nonlinear elimination, NMRI mice 5.3 mg/kg p.o.) was 143 µg/h/kg.

Reference: paper PMC4335872, “Pharmacokinetic-Pharmacodynamic Analysis of Spiroindolone Analogs and KAE609 in a Murine Malaria Model” (Antimicrobial Agents and Chemotherapy, 2015)
